The target in assay [1] is Proto-oncogene tyrosine-protein kinase Src (Homo sapiens) (UniProt P12931). In words: Inhibition of SRC (unknown origin) at 0.5 uM relative to control.
The target of assay [2] is Inhibitor of nuclear factor kappa-B kinase subunit epsilon (Homo sapiens) (UniProt Q14164). In words: Inhibition of IKK-epsilon (unknown origin) at 0.5 uM relative to control.
In assay [3] the target is Dual specificity mitogen-activated protein kinase kinase 4 (Homo sapiens) (UniProt P45985). Kind of assay: Inhibition of MAP2K4 (unknown origin) at 0.5 uM relative to control.
The target of assay [4] is Serine/threonine-protein kinase PLK2 (Homo sapiens) (UniProt Q9NYY3). Kind of assay: Inhibition of PLK2 (unknown origin) at 0.5 uM relative to control.
The next assay is filed under the species Homo sapiens. In words: Inhibition of LYNA (unknown origin) at 0.5 uM relative to control.
The target in assay [5] is Fibroblast growth factor receptor 2 (Homo sapiens) (UniProt P21802). In words: Inhibition of FGFR2 (unknown origin) at 0.5 uM relative to control.
Fibroblast growth factor receptor 2 (Homo sapiens), sequence (P21802 22-821 limits assumed): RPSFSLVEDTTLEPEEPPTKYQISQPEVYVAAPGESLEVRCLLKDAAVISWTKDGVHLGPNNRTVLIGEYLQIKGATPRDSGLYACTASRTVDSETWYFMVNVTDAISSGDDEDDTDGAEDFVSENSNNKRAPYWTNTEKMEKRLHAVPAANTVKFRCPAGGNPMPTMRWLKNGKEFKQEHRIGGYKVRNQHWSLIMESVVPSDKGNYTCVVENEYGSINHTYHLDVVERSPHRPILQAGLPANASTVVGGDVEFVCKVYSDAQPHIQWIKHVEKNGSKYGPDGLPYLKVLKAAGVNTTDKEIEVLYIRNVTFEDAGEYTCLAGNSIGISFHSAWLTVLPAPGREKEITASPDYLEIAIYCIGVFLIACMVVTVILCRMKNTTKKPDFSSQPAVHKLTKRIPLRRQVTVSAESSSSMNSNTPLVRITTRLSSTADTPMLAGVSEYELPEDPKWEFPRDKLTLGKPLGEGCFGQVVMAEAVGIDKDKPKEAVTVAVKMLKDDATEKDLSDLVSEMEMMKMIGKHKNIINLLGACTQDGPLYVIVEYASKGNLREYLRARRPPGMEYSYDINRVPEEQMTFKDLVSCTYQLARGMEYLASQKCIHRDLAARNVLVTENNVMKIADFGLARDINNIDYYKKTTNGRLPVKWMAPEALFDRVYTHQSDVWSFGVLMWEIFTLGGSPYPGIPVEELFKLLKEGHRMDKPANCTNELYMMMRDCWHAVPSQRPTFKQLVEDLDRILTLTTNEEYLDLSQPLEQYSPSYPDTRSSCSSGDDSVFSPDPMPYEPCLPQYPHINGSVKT

Proto-oncogene tyrosine-protein kinase Src (Homo sapiens), sequence (P12931 2-536 limits assumed): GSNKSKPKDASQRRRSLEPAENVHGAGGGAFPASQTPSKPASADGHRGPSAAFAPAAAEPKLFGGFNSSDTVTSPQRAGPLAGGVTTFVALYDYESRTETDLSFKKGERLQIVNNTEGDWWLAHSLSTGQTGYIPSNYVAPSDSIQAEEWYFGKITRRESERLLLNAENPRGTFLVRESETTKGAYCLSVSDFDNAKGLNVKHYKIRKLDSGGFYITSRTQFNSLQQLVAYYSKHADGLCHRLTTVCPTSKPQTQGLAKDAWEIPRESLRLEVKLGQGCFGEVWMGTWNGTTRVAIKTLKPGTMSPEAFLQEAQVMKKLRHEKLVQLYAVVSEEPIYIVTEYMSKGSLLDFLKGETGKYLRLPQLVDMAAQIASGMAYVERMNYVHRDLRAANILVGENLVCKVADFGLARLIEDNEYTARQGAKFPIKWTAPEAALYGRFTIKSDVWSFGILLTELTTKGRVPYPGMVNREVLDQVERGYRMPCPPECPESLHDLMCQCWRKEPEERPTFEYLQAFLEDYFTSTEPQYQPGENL
Dual specificity mitogen-activated protein kinase kinase 4 (Homo sapiens), sequence (P45985 whole entry): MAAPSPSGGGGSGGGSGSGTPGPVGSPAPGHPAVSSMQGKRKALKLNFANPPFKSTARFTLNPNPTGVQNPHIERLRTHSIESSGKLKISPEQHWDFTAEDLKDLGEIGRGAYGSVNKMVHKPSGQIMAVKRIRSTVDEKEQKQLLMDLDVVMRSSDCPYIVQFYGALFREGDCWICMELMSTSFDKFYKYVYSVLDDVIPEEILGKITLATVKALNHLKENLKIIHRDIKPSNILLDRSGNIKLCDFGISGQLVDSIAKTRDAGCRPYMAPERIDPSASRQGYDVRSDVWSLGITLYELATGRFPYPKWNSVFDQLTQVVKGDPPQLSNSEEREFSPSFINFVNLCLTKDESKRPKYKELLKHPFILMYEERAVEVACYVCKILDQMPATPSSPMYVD
Inhibitor of nuclear factor kappa-B kinase subunit epsilon (Homo sapiens), sequence (Q14164 whole entry): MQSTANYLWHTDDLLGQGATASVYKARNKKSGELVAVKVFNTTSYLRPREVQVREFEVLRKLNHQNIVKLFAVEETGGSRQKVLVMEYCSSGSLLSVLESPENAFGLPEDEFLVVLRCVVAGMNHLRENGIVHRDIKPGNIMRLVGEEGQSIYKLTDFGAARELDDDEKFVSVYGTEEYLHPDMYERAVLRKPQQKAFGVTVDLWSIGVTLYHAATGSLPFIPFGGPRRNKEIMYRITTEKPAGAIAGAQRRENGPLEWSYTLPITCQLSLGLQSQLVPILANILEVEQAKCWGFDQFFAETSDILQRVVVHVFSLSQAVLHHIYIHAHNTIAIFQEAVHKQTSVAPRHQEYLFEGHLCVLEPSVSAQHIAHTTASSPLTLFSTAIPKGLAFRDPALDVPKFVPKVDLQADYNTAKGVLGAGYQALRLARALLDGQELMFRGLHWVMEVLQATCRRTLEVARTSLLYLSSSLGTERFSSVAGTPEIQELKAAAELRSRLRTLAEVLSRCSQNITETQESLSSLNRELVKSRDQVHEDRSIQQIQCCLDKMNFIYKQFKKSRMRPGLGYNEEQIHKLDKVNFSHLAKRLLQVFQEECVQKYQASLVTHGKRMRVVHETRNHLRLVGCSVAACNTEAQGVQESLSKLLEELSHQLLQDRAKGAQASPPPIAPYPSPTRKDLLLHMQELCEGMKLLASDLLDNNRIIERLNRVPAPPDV
Serine/threonine-protein kinase PLK2 (Homo sapiens), sequence (Q9NYY3 whole entry, looked up): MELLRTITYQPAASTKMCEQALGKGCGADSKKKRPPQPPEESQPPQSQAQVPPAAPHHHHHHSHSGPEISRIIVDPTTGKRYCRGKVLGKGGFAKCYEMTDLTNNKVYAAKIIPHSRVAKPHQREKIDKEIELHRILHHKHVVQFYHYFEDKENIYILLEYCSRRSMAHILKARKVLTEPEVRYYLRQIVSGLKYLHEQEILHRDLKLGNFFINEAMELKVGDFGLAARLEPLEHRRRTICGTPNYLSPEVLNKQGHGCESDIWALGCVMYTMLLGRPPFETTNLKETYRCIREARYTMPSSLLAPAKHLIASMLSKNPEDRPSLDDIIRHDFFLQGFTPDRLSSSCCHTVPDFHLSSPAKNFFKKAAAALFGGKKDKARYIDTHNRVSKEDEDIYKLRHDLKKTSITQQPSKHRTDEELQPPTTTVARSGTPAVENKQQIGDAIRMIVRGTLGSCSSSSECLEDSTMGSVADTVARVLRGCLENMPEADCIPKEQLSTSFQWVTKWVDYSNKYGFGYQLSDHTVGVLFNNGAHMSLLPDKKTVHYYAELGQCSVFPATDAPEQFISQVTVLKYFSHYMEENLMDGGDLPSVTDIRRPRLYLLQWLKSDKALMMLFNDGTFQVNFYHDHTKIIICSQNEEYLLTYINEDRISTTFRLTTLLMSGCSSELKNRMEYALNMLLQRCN

In the case of `CNC(=O)c1cc(Oc2ccc(NC(=O)c3nc(SC)oc3-c3ccc(F)cc3)cc2F)ccn1`, the inhibition (in general, the relative decrease from the control value, in per cent) in assay [1] stood at 40%.
`CNC(=O)c1cc(Oc2ccc(NC(=O)c3nc(SC)n(CCN(C)C)c3-c3ccc(F)cc3)cc2)ccn1`: in assay [2], the inhibition came to 34%.
In the case of `CSc1nc(C(=O)Nc2ccc(Oc3cc4cnn(C)c4cc3Br)cc2)c(-c2ccc(F)cc2)o1`, the inhibition in assay [3] turned out to be 16%; in assay [4] it was 19%.
As to `CNC(=O)c1cc(Oc2ccc(NC(=O)c3nc(SC)[nH]c3-c3ccc(F)cc3)cc2)ccn1`, the inhibition in the assay filed under Homo sapiens was 84%.
In assay [5], `CNC(=O)c1cc(Oc2ccc(NC(=O)c3nc(S(C)(=O)=O)sc3-c3ccc(F)cc3)cc2)ccn1` came in with an inhibition of 11%.

These data come from ChEMBL document CHEMBL4806968, “Hipk inhibitors and methods of use thereof” (2020).
